Results published in PubChem BioAssay AID1963985 (Molecular Pharmacology Branch, DTP, NCI, 2024).

System: 252836-082-R-J2-PDC tumor spheroids, viability
Test: Anticancer human tumor 252836-082-R-J2-PDC patient-derived head and neck squamous cell carcinoma cell line growth inhibition [PI3K]
Conditions: spheroids with HUVEC and MSC; for IC50: curve of first compound; for viability, T/C: stronger effect = lower value; active = viability on the fitted dose curve at most 10% of control; inactive = the rest
Summary of the method: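 Tumor cells grown as multi-cell spheroids with HUVEC endothelial cells and MSC fibroblast-like stroma were treated with targeted agents combined with inavolisib, alpelisib, duvelisib or copanlisib. Doses fell in half-log steps from near clinical Cmax, else from 10 microM. Viability was measured.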

[1] = second compound 0.00316 µM, first compound 0.00316 µM
[2] = second compound 0.00316 µM, first compound 0.01 µM
[3] = second compound 0.00316 µM, first compound 0.0316 µM
[4] = second compound 0.00316 µM, first compound 0.1 µM
[5] = second compound 0.01 µM, first compound 0.00316 µM
[6] = second compound 0.01 µM, first compound 0.01 µM
[7] = second compound 0.01 µM, first compound 0.0316 µM
[8] = second compound 0.01 µM, first compound 0.1 µM
[9] = second compound 0.0316 µM, first compound 0.00316 µM
[10] = second compound 0.0316 µM, first compound 0.01 µM
[11] = second compound 0.0316 µM, first compound 0.0316 µM
[12] = second compound 0.0316 µM, first compound 0.1 µM
[13] = second compound 0.1 µM, first compound 0.00316 µM
[14] = second compound 0.1 µM, first compound 0.01 µM
[15] = second compound 0.1 µM, first compound 0.0316 µM
[16] = second compound 0.1 µM, first compound 0.1 µM
[17] = second compound 0.316 µM, first compound 0.00316 µM
[18] = second compound 0.316 µM, first compound 0.01 µM
[19] = second compound 0.316 µM, first compound 0.0316 µM
[20] = second compound 0.316 µM, first compound 0.1 µM
[21] = second compound 1 µM, first compound 0.00316 µM
[22] = second compound 1 µM, first compound 0.01 µM
[23] = second compound 1 µM, first compound 0.0316 µM
[24] = second compound 1 µM, first compound 0.1 µM
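Note: spheroids exposed to agents for seven days before readout.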
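Throughout, for viability, T/C: percent of vehicle DMSO control viability so 100% = untreated growth.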

CC(C)n1nc(-c2ccc3oc(N)nc3c2)c2c(N)ncnc21 + CC(Nc1ccc2c(c1)OCCn1cc(N3C(=O)OCC3C(F)F)nc1-2)C(N)=O
9.42 nM: IC50 (second compound 0.1 µM)
36.9 nM: IC50 (second compound 0.00316 µM)
< 0.316 nM: IC50 (second compound 1 µM)
22.4 nM: IC50 (second compound 0.0316 µM)
26.9 nM: IC50 (second compound 0.01 µM)
inactive: viability, T/C (second compound 0.00316 µM, first compound 0.000316 µM) 108% | viability, T/C (second compound 0.00316 µM, first compound 0.001 µM) 81.8% | viability, T/C [1] 79% | viability, T/C [2] 86% | viability, T/C [3] 51.1% | viability, T/C [4] 21.9% | viability, T/C (second compound 0.01 µM, first compound 0.000316 µM) 94% | viability, T/C (second compound 0.01 µM, first compound 0.001 µM) 81.1% | viability, T/C [5] 73.6% | viability, T/C [6] 69.4% | viability, T/C [7] 47.7% | viability, T/C [8] 21.3% | viability, T/C (second compound 0.0316 µM, first compound 0.000316 µM) 86.2% | viability, T/C (second compound 0.0316 µM, first compound 0.001 µM) 77.4% | viability, T/C [9] 80.7% | viability, T/C [10] 61.7% | viability, T/C [11] 44.8% | viability, T/C [12] 19.4% | viability, T/C (second compound 0.1 µM, first compound 0.000316 µM) 78.2% | viability, T/C (second compound 0.1 µM, first compound 0.001 µM) 65.1% | viability, T/C [13] 59.5% | viability, T/C [14] 52.5% | viability, T/C [15] 35.2% | viability, T/C [16] 15.9% | viability, T/C (second compound 0.316 µM, first compound 0.000316 µM) 55.1% | viability, T/C (second compound 0.316 µM, first compound 0.001 µM) 52.3% | viability, T/C [17] 56.6% | viability, T/C [18] 40% | viability, T/C [19] 28.9% | viability, T/C [20] 16.6% | viability, T/C (second compound 1 µM, first compound 0.000316 µM) 46.4% | viability, T/C (second compound 1 µM, first compound 0.001 µM) 52.5% | viability, T/C [21] 42.4% | viability, T/C [22] 37.8% | viability, T/C [23] 26.6% | viability, T/C [24] 11.9%
4.07 nM: IC50 (second compound 0.316 µM)

CCN1CCN(Cc2ccc(Nc3ncc(F)c(-c4cc(F)c5nc(C)n(C(C)C)c5c4)n3)nc2)CC1 + CC(Nc1ccc2c(c1)OCCn1cc(N3C(=O)OCC3C(F)F)nc1-2)C(N)=O
inactive: viability, T/C [1] 87.8% | viability, T/C [2] 86.1% | viability, T/C [3] 75.3% | viability, T/C [4] 93.1% | viability, T/C (second compound 0.00316 µM, first compound 0.316 µM) 82.7% | viability, T/C (second compound 0.00316 µM, first compound 1 µM) 76.5% | viability, T/C [5] 90.3% | viability, T/C [6] 82.5% | viability, T/C [7] 94.4% | viability, T/C [8] 78.7% | viability, T/C (second compound 0.01 µM, first compound 0.316 µM) 90% | viability, T/C (second compound 0.01 µM, first compound 1 µM) 70.3% | viability, T/C [9] 79.1% | viability, T/C [10] 79.6% | viability, T/C [11] 73% | viability, T/C [12] 74.1% | viability, T/C (second compound 0.0316 µM, first compound 0.316 µM) 80.6% | viability, T/C (second compound 0.0316 µM, first compound 1 µM) 81.3% | viability, T/C [13] 73.7% | viability, T/C [14] 59.7% | viability, T/C [15] 58.8% | viability, T/C [16] 66.5% | viability, T/C (second compound 0.1 µM, first compound 0.316 µM) 52.3% | viability, T/C (second compound 0.1 µM, first compound 1 µM) 54.2% | viability, T/C [17] 51.2% | viability, T/C [18] 47.4% | viability, T/C [19] 51.5% | viability, T/C [20] 53.3% | viability, T/C (second compound 0.316 µM, first compound 0.316 µM) 50.8% | viability, T/C (second compound 0.316 µM, first compound 1 µM) 44.3% | viability, T/C [21] 47% | viability, T/C [22] 43.9% | viability, T/C [23] 43.5% | viability, T/C [24] 36.8% | viability, T/C (second compound 1 µM, first compound 0.316 µM) 40.5% | viability, T/C (second compound 1 µM, first compound 1 µM) 31.8%
< 3.16 nM: IC50 (second compound 1 µM)
> 1000 nM: IC50 (second compound 0.00316 µM) | IC50 (second compound 0.01 µM) | IC50 (second compound 0.0316 µM) | IC50 (second compound 0.1 µM)
36.1 nM: IC50 (second compound 0.316 µM)
